In assay [1] the target is T1, F16′T ELIC (Dickeya chrysanthemi, UniProt P0C7B7, F246T).
T1 construct: expressed in transfected cells; host or cells: Xenopus laevis oocytes (cRNA injection)
In words: GABA activation of F16′T ELIC, two-electrode voltage clamp in Xenopus oocytes. Format: cell-based, Erwinia chrysanthemii. The settings on record: F16′T ELIC; GABA concentration–response.

Assay [2] concerns the target T2, F16′A ELIC (Dickeya chrysanthemi, UniProt P0C7B7, F246A).
T2 construct: expressed in transfected cells; host or cells: Xenopus laevis oocytes (cRNA injection)
In words: GABA activation of F16′A ELIC, two-electrode voltage clamp in Xenopus oocytes. Particulars: F16′A ELIC; GABA concentration–response. Format: cell-based, Erwinia chrysanthemii. The protocol:
(§1) Xenopus laevis oocyte-positive females were purchased from NASCO (Fort Atkinson, WI) and maintained according to standard methods. Harvested stage V and VI Xenopus oocytes were washed in four changes of Ca^2+-free ND96 [96 mM NaCl, 2 mM KCl, 1 mM MgCl2, and 5 mM HEPES (pH 7.5)], defolliculated in 1.5 mg mL^–1 collagenase type 1A for approximately 2 h, washed again in four changes of ND96, and stored in ND96 at 16 °C containing 2.5 mM sodium pyruvate, […] gentamycin, and 0.7 mM theophylline.
(§2) ELIC (GenBank accession number ADN00343.1) was kindly provided by C. Ulens. For expression in Xenopus oocytes, it was cloned into pGEMHE with the signal sequence of the human α7 nACh receptor. […] Stage V and VI oocytes were injected with 20 ng of cRNA, and currents were recorded 1–3 days postinjection.
(§3) Using two-electrode voltage clamp, Xenopus oocytes were clamped at −60 mV using an OC-725 amplifier (Warner Instruments, Hamden, CT), Digidata 1322A, and the Strathclyde Electrophysiology Software Package (Department of Physiology and Pharmacology, University of Strathclyde, Glasgow, U.K.). Currents were recorded at 5 kHz and filtered at a frequency of 1 kHz. […] Inhibition by test compounds was measured at the GABA EC50 for each mutant. […]

Assay [3] deals with T3, F16′L ELIC (Dickeya chrysanthemi, UniProt P0C7B7, F246L).
T3 construct: expressed in transfected cells; host or cells: Xenopus laevis oocytes (cRNA injection)
As to the kind of experiment: GABA activation of F16′L ELIC, two-electrode voltage clamp in Xenopus oocytes. The class given is cell-based, Erwinia chrysanthemii. The protocol: as §1, §2, §3
For orientation: Two-electrode voltage clamp holds a large cell at a set potential and records current.

Assay [4] deals with T4, F16′D ELIC (Dickeya chrysanthemi, UniProt P0C7B7, F246D).
T4 construct: expressed in transfected cells; host or cells: Xenopus laevis oocytes (cRNA injection)
In words: GABA activation of F16′D ELIC, two-electrode voltage clamp in Xenopus oocytes. The class given is cell-based, Erwinia chrysanthemii. Particulars: F16′D ELIC; GABA concentration–response.

In assay [5] the target is T5, wild type ELIC (Dickeya chrysanthemi, UniProt P0C7B7).
T5 construct: expressed in transfected cells; host or cells: Xenopus laevis oocytes (cRNA injection)
In words: GABA activation of wild-type ELIC, two-electrode voltage clamp in Xenopus oocytes. The class given is cell-based, Erwinia chrysanthemii. The protocol: as §1
(§4) ELIC (GenBank accession number ADN00343.1) was kindly provided by C. Ulens. For expression in Xenopus oocytes, it was cloned into pGEMHE with the signal sequence of the human α7 nACh receptor. Site-directed mutagenesis was performed with the QuikChange mutagenesis kit (Stratagene, La Jolla, CA). cRNA was transcribed in vitro from the linearized pGEMHE cDNA template using the mMessage mMachine T7 transcription kit (Ambion, Austin, TX). Stage V and VI oocytes were injected with 20 ng of cRNA, and currents were recorded 1–3 days postinjection.
(§5) Using two-electrode voltage clamp, Xenopus oocytes were clamped at −60 mV using an OC-725 amplifier (Warner Instruments, Hamden, CT), Digidata 1322A, and the Strathclyde Electrophysiology Software Package (Department of Physiology and Pharmacology, University of Strathclyde, Glasgow, U.K.). Currents were recorded at 5 kHz and filtered at a frequency of 1 kHz. Microelectrodes were fabricated from borosilicate glass (GC120TF-10, Harvard Apparatus, Edenbridge, Kent, U.K.) using a one-stage horizontal pull (P-87, Sutter Instrument Co., Novato, CA) and filled with 3 M KCl. Pipette resistances ranged from 1.0 to 2.0 MΩ. Oocytes were perfused with ND96 at a constant rate of 12 mL min^–1 with complete solution exchange within 5 s. Drug application was accomplished via a simple gravity-fed system calibrated to run at the same rate. Inhibition by test compounds was measured at the GABA EC50 for each mutant.
Analysis and curve fitting were performed using Prism version 4.03 (GraphPad Software, San Diego, CA). […]

Assay [6] has as its target T6, F16′S/T6′S ELIC (Dickeya chrysanthemi, UniProt P0C7B7, F246S/T236S).
T6 construct: expressed in transfected cells; host or cells: Xenopus laevis oocytes (cRNA injection)
In words: GABA activation of F16′S/T6′S ELIC, two-electrode voltage clamp in Xenopus oocytes. The class given is cell-based, Erwinia chrysanthemii. The settings on record: F16′S/T6′S ELIC; GABA concentration–response.

In assay [7] the target is T7, T6′A ELIC (Dickeya chrysanthemi, UniProt P0C7B7, T236A).
T7 construct: expressed in transfected cells; host or cells: Xenopus laevis oocytes (cRNA injection)
As to the kind of experiment: GABA activation of T6′A ELIC, two-electrode voltage clamp in Xenopus oocytes. Format: cell-based, Erwinia chrysanthemii. The settings on record: T6′A ELIC; GABA concentration–response.

In assay [8] the target is T8, T6′S ELIC (Dickeya chrysanthemi, UniProt P0C7B7, T236S).
T8 construct: expressed in transfected cells; host or cells: Xenopus laevis oocytes (cRNA injection)
As to the kind of experiment: GABA activation of T6′S ELIC, two-electrode voltage clamp in Xenopus oocytes. Format: cell-based, Erwinia chrysanthemii. The settings on record: T6′S ELIC; GABA concentration–response.

Assay [9] deals with T9, F16′S ELIC (Dickeya chrysanthemi, UniProt P0C7B7, F246S).
T9 construct: expressed in transfected cells; host or cells: Xenopus laevis oocytes (cRNA injection)
As to the kind of experiment: GABA activation of F16′S ELIC, two-electrode voltage clamp in Xenopus oocytes. Format: cell-based, Erwinia chrysanthemii. Particulars: F16′S ELIC; GABA concentration–response.

Assay [10] addresses T10, Q2′A ELIC (Dickeya chrysanthemi, UniProt P0C7B7, Q232A).
T10 construct: expressed in transfected cells; host or cells: Xenopus laevis oocytes (cRNA injection)
In words: GABA activation of Q2′A ELIC, two-electrode voltage clamp in Xenopus oocytes. The class given is cell-based, Erwinia chrysanthemii. Particulars: Q2′A receptors. The protocol:
as §1, §2, §3

Assay [11] concerns the target T11, F16′Y ELIC (Dickeya chrysanthemi, UniProt P0C7B7, F246Y).
T11 construct: expressed in transfected cells; host or cells: Xenopus laevis oocytes (cRNA injection)
In words: GABA activation of F16′Y ELIC, two-electrode voltage clamp in Xenopus oocytes. The settings on record: F16′Y ELIC; GABA concentration–response. The class given is cell-based, Erwinia chrysanthemii.

Assay [12] concerns the target T12, F16′Q ELIC (Dickeya chrysanthemi, UniProt P0C7B7, F246Q).
T12 construct: expressed in transfected cells; host or cells: Xenopus laevis oocytes (cRNA injection)
In words: GABA activation of F16′Q ELIC, two-electrode voltage clamp in Xenopus oocytes. The class given is cell-based, Erwinia chrysanthemii. The settings on record: F16′Q ELIC; GABA concentration–response.

Assay [13] addresses T13, F16′E ELIC (Dickeya chrysanthemi, UniProt P0C7B7, F246E).
T13 construct: expressed in transfected cells; host or cells: Xenopus laevis oocytes (cRNA injection)
In words: GABA activation of F16′E ELIC, two-electrode voltage clamp in Xenopus oocytes. The class given is cell-based, Erwinia chrysanthemii. How it is done: as §1, §2, §3

Assay [14] deals with T14, Q2′N ELIC (Dickeya chrysanthemi, UniProt P0C7B7, Q232N).
T14 construct: expressed in transfected cells; host or cells: Xenopus laevis oocytes (cRNA injection)
As to the kind of experiment: GABA activation of Q2′N ELIC, two-electrode voltage clamp in Xenopus oocytes. The class given is cell-based, Erwinia chrysanthemii. Particulars: Q2′N ELIC; GABA concentration–response.

The target in assay [15] is T15, F16′W ELIC (Dickeya chrysanthemi, UniProt P0C7B7, F246W).
T15 construct: expressed in transfected cells; host or cells: Xenopus laevis oocytes (cRNA injection)
In words: GABA activation of F16′W ELIC, two-electrode voltage clamp in Xenopus oocytes. Format: cell-based, Erwinia chrysanthemii. The settings on record: F16′W ELIC; GABA concentration–response.

Assay [16] addresses T5, wild type ELIC. As to the kind of experiment: Inhibition of GABA-elicited currents of wild-type ELIC in Xenopus oocytes. The class given is cell-based, Erwinia chrysanthemii. How it is done: as §1, §4, §5
Analysis and curve fitting were performed using Prism version 4.03 (GraphPad Software, San Diego, CA). Concentration–response data for each oocyte were normalized to the maximal current for that oocyte and the mean ± standard error of the mean (SEM) for a series of oocytes pooled and plotted against agonist or antagonist concentration and iteratively fit to the four-parameter logistic equation. Statistical analysis was performed using a Student’s t test.

Assay [17] has as its target T15, F16′W ELIC. In words: Inhibition of GABA-elicited currents of F16′W ELIC in Xenopus oocytes. The settings on record: F16′W ELIC. The class given is cell-based, Erwinia chrysanthemii.
In assay [18] the target is T2, F16′A ELIC. In words: Inhibition of GABA-elicited currents of F16′A ELIC in Xenopus oocytes. Format: cell-based, Erwinia chrysanthemii. Particulars: F16′A ELIC; inhibition curve.
Assay [19] has as its target T7, T6′A ELIC. As to the kind of experiment: Inhibition of GABA-elicited currents of T6′A ELIC in Xenopus oocytes. Format: cell-based, Erwinia chrysanthemii. The settings on record: T6′A ELIC; inhibition curve. The protocol: as §1, §2, §3
Assay [20] deals with T8, T6′S ELIC. As to the kind of experiment: Inhibition of GABA-elicited currents of T6′S ELIC in Xenopus oocytes. Format: cell-based, Erwinia chrysanthemii. The settings on record: T6′S ELIC; inhibition curve.
In assay [21] the target is T9, F16′S ELIC. As to the kind of experiment: Inhibition of GABA-elicited currents of F16′S ELIC in Xenopus oocytes. The class given is cell-based, Erwinia chrysanthemii. The settings on record: F16′S ELIC.
Assay [22] concerns the target T1, F16′T ELIC. In words: Inhibition of GABA-elicited currents of F16′T ELIC in Xenopus oocytes. Format: cell-based, Erwinia chrysanthemii. Particulars: F16′T ELIC; inhibition curve.
For assay [23], the target named is T4, F16′D ELIC. In words: Inhibition of GABA-elicited currents of F16′D ELIC in Xenopus oocytes. Format: cell-based, Erwinia chrysanthemii. Particulars: F16′D ELIC; inhibition curve. The protocol: as §1, §2, §3
The test system of assay [24] is GLIC. Also noted: method as in PMID 22677470, PMID 22208189. The settings on record: cited from earlier work.
Assay [25] deals with T14, Q2′N ELIC. As to the kind of experiment: Inhibition of GABA-elicited currents of Q2′N ELIC in Xenopus oocytes. The class given is cell-based, Erwinia chrysanthemii. Particulars: Q2′N ELIC; inhibition curve.
In assay [26] the target is T13, F16′E ELIC. In words: Inhibition of GABA-elicited currents of F16′E ELIC in Xenopus oocytes. The settings on record: F16′E ELIC; inhibition curve. The class given is cell-based, Erwinia chrysanthemii.

Structures are written as SMILES. Read-outs that look alike come from different tables or passages of the source.

The IC50 is the concentration that gives 50% inhibition. One may read the inhibition as the change of the read-out against control, counted positive when it falls.

T5 sequence (P0C7B7 whole entry): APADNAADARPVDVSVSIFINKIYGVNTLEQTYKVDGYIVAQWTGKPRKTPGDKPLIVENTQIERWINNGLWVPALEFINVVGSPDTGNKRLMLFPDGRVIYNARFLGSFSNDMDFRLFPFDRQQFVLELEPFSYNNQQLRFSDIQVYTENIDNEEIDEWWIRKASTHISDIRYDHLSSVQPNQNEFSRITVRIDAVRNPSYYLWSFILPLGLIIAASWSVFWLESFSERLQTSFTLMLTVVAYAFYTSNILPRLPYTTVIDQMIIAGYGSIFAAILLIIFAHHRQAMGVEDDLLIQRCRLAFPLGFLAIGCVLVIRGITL
T9 sequence (P0C7B7 whole entry F246S): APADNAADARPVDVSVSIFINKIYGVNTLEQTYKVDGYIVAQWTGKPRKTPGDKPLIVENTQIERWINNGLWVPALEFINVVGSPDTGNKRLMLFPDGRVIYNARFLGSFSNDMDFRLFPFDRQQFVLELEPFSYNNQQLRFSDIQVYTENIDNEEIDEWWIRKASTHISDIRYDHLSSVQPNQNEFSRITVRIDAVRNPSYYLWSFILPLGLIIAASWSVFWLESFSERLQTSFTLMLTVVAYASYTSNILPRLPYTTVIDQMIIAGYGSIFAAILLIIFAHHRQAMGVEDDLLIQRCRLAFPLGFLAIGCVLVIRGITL
T15 sequence (P0C7B7 whole entry F246W): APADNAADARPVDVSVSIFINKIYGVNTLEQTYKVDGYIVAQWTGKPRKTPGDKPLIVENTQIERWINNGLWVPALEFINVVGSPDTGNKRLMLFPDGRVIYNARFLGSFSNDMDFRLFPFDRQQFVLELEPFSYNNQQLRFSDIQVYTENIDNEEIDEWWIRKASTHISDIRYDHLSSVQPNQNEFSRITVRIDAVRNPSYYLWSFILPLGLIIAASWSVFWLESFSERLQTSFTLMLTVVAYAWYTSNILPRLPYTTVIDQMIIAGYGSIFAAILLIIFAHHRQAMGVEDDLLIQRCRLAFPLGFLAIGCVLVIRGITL
T13 sequence (P0C7B7 whole entry F246E): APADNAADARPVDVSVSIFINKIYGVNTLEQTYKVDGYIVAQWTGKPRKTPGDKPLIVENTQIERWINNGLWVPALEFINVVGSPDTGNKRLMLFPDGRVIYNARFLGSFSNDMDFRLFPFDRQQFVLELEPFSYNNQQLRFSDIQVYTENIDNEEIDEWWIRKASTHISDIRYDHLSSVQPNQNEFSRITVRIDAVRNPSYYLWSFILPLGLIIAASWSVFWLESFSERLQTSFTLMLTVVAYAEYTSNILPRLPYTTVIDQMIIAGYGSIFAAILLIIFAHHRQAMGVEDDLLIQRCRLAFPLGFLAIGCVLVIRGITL
T14 sequence (P0C7B7 whole entry Q232N): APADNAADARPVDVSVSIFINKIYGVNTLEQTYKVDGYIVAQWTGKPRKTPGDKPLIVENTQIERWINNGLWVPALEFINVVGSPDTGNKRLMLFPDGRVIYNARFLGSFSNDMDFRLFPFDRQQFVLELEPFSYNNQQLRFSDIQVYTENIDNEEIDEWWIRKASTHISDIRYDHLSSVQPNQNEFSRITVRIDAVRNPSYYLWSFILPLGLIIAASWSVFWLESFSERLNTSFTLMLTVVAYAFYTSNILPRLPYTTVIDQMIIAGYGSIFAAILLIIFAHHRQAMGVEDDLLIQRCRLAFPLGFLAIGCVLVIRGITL
T8 sequence (P0C7B7 whole entry T236S): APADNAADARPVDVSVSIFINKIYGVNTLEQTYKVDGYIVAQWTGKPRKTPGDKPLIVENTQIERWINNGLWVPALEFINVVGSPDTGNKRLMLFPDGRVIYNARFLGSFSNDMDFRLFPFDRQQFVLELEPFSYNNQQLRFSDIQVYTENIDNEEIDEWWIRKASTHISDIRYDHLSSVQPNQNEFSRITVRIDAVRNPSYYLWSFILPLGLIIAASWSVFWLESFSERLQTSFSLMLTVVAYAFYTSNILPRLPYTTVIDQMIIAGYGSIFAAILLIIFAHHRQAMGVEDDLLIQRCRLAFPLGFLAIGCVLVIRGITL
T1 sequence (P0C7B7 whole entry F246T): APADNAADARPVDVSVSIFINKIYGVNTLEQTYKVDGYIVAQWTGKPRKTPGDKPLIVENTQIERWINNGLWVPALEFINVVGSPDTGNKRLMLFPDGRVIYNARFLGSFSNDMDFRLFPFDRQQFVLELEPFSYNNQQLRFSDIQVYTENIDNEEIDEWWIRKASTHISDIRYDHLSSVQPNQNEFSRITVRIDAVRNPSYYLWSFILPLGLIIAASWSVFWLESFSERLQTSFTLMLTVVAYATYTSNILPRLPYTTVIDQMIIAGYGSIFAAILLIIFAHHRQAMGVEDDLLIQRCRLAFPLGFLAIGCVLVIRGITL
T3 sequence (P0C7B7 whole entry F246L): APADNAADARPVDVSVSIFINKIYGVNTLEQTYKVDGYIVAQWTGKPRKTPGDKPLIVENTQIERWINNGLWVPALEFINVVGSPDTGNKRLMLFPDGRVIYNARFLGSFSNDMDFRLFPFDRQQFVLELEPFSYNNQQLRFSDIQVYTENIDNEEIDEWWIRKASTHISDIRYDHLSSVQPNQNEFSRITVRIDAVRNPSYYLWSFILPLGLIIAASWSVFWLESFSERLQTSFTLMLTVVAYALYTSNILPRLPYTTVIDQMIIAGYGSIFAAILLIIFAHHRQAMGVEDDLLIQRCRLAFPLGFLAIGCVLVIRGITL
T4 sequence (P0C7B7 whole entry F246D): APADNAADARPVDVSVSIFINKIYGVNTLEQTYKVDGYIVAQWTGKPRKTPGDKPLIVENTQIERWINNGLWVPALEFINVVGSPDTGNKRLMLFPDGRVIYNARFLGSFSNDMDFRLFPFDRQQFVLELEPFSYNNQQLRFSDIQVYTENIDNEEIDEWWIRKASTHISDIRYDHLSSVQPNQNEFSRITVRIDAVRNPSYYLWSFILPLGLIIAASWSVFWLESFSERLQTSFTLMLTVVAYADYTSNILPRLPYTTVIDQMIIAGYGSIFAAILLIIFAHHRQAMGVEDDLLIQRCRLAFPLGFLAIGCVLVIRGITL
T2 sequence (P0C7B7 whole entry F246A): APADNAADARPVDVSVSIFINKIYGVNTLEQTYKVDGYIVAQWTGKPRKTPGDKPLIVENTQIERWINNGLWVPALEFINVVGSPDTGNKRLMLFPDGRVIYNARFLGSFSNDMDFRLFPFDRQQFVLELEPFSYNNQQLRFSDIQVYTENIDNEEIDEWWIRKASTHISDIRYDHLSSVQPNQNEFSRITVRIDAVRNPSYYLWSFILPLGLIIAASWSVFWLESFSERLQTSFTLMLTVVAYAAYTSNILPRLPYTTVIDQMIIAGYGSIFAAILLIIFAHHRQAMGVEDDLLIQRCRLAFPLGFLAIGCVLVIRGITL
T7 sequence (P0C7B7 whole entry T236A): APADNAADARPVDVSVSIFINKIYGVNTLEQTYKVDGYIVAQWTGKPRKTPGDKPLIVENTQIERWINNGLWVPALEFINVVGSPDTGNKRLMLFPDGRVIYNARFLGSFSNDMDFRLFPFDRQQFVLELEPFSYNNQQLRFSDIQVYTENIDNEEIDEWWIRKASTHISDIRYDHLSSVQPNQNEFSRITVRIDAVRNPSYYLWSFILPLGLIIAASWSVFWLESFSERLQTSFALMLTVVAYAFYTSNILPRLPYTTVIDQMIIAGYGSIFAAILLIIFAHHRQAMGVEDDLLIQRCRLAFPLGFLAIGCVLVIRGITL
T6 sequence (P0C7B7 whole entry T236S/F246S): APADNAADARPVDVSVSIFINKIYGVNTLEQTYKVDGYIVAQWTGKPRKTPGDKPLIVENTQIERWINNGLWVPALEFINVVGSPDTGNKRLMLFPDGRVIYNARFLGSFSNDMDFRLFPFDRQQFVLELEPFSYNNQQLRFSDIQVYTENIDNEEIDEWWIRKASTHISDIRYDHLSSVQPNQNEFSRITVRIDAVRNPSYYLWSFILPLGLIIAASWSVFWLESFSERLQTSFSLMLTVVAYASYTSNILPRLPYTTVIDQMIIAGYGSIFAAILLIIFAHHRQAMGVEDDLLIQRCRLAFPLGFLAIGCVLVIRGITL
T12 sequence (P0C7B7 whole entry F246Q): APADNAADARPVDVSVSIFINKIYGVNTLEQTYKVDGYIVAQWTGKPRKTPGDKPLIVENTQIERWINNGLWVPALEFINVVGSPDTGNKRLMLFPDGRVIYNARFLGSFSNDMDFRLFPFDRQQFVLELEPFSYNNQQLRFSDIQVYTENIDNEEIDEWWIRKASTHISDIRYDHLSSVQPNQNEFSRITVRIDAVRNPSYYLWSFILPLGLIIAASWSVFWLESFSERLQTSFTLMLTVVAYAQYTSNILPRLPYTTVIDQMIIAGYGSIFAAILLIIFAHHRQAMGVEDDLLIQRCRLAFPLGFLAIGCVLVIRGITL
T10 sequence (P0C7B7 whole entry Q232A): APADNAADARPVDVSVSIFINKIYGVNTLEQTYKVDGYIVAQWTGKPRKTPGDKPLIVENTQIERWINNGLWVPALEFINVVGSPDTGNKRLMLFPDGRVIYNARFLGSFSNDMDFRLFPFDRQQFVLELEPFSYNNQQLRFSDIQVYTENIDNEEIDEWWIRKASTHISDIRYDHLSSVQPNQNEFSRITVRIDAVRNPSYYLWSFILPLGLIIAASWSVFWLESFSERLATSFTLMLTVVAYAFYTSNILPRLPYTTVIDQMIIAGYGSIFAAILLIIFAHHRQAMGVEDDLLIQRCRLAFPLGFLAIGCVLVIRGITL
T11 sequence (P0C7B7 whole entry F246Y): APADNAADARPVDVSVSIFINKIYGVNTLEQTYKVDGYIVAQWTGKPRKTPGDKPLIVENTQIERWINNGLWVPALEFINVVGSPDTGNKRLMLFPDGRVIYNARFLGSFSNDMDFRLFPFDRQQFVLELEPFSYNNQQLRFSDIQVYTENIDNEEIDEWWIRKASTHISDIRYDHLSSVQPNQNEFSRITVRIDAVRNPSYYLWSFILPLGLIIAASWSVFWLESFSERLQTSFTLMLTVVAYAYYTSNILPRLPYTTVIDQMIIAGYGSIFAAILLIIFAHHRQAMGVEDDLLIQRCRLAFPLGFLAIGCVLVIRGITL

As for `NCCCC(=O)O` [GABA, γ-aminobutyric acid], the nH is 1.8 ± 0.3 in assay [1]; 3.0 ± 0.5 in assay [2]; 1.6 ± 0.2 in assay [3] (F16′L ELIC, GABA concentration–response); 2.5 ± 0.3 in [4]; 2.2 ± 0.7 in assay [6]; 2.1 ± 0.1 in assay [7]. The nH is 2.7 ± 0.3 in [8]; 2.5 ± 0.6 in [9]; 2.1 ± 0.3 in assay [11]; 2.3 ± 0.6 in assay [12]; 1.3 ± 0.2 in assay [13] (F16′E ELIC, GABA concentration–response); 2.6 ± 1.3 in assay [14]. The compound further had a nH in assay [15] of 3.6 ± 0.5. In addition, the “fold change in EC50 compared to wild type” value in assay [3] (F16′L ELIC vs wild type) turned out to be 32 fold. The “nH (Hill slope)” value in assay [5] (GABA concentration–response) was 2.5 ± 0.7. Further, the EC50 in assay [5] (oocytes clamped at −60 mV, mean ± SEM, read-out: GABA pEC50 (converted)) was 1660 µM; in assay [5] (read-out: GABA EC50), 1600 µM. The “response to application of 100 mM GABA” value in assay [10] is “did not respond”. For the same compound, in [13] (F16′E ELIC vs wild type), the “fold increase in EC50 compared to wild type” value stood at 16 fold.
As to `C=C(C)[C@@H]1[C@H]2OC(=O)[C@@H]1[C@]1(O)C[C@H]3O[C@]34C(=O)O[C@H]2[C@]14C` [PXN, Picrotoxinin], the IC50 in [16] was 72 µM; in assay [24], 2.6 µM. In addition, the inhibition at 100 µM in assay [16] (read-out: inhibition of the GABA EC50 response) was approximately 50%; in assay [17] (co-application of 100 μM PXN with GABA EC50, read-out: inhibition of the GABA EC50 response), approximately 50%. Moreover, the nH in assay [16] (wild type ELIC, inhibition curve) is listed as 1.3 ± 0.3; in assay [17] (inhibition curve) it was 1.3 ± 0.3; in assay [18] it was 1.0 ± 0.2; in [19], 1.8 ± 0.4; in [20], 1.3 ± 0.3; in assay [21] (inhibition curve), 1.3 ± 0.3. The nH in assay [22] was 0.9 ± 0.1; in [23], 1.0 ± 0.2; in assay [25] it was 1.6 ± 0.3; in [26], 0.6 ± 0.1. Moreover, in assay [21] (co-application of 100 μM PXN with GABA EC50), the “inhibition of the GABA EC50 response” value is “completely abolishes”.

The values are drawn from article PMC4312132, “Phenylalanine in the Pore of the Erwinia Ligand-Gated Ion Channel Modulates Picrotoxinin Potency but Not Receptor Function” (Biochemistry, 2014).
